*1 amine or outer side, *2 acyl side, *3 side chain or, on linkers, in order; H or OH if unused. Where a SMILES comes first, the peptide text is derived from it. Bridges are numbered along the chain shown (N, C = ends). [ ]: non-standard residue; d: D form. The star is where a group is joined. hPhe(3,5-F2-4-CF3) = N[C@@H](CCc1cc(F)c(C(F)(F)F)c(F)c1)C(=O)O; NPrPhe(4-CF3) = CCCN[C@@H](Cc1ccc(C(F)(F)F)cc1)C(=O)O; NMeAbu(4,4,4-F3) = CN[C@@H](CC(F)(F)F)C(=O)O; X16 = O=C([C@@H](N[*:1])C1CC(F)(F)C1)[*:2]; NMeGly(cPent) = CN[C@H](C(=O)O)C1CCCC1; Ac4c(3,3-F2) = NC1(C(=O)O)CC(F)(F)C1; Nva(3-Et) = CCC(CC)[C@H](N)C(=O)O; αMeI = CC[C@H](C)[C@](C)(N)C(=O)O; NMeD = CN[C@@H](CC(=O)O)C(=O)O; Ac4c(3-oxa) = NC1(C(=O)O)COC1; NMeL = CN[C@@H](CC(C)C)C(=O)O; Iva = CC[C@](C)(N)C(=O)O; Morpholide = C1CN(*)CCO1; Ac5c = NC1(C(=O)O)CCCC1; Aze = O=C(O)[C@@H]1CCN1; Sar = CNCC(=O)O
Experiments:
HRAS wild-type protein = HRAS wild-type protein (Homo sapiens, UniProt P01112); assay: Binding to HRAS by surface plasmon resonance (SPR), KD and KD ratio to KRAS; settings: ratio of KD for HRAS wild-type protein to KD for KRAS
Chain of HRAS wild-type protein (P01112 whole entry): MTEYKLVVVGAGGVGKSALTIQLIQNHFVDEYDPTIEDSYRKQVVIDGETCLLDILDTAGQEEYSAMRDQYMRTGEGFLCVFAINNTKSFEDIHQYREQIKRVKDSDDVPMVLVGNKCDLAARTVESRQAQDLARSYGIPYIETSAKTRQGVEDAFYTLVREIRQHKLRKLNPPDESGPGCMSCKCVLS
Outline: (§1)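 Captured GDP-RAS (~100–300 RU) was exposed to increasing compound concentrations, 75 s per step, in running buffer with 10 µM GDP, 10 mM MgCl2 and 4% DMSO at pH 7.4.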

[1] = tested on: human lung cancer strain NCI-H441; format: cell-based
Outline: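 Step one: dispense the test compound in serial DMSO dilutions. Step three: add the reagent and measure […].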

[2] = target: GDP-bound NRAS wild-type protein (Homo sapiens, UniProt P01111); assay: Binding to NRAS by surface plasmon resonance (SPR), KD and KD ratio to KRAS; settings: ratio of KD for GDP-bound NRAS wild-type protein to KD for KRAS
Chain of GDP-bound NRAS wild-type protein (P01111 whole entry): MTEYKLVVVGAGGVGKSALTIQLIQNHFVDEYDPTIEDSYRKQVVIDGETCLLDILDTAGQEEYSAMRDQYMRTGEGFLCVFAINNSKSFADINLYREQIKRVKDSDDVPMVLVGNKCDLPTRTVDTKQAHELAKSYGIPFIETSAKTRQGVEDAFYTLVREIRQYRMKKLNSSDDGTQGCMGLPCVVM
Outline: as §1

Compound	HRAS /KRAS (HRAS wild-type protein)	IC50 [1]	NRAS /KRAS [2]
CCCN1C(=O)CN(C)C(=O)CN(C)C(=O)[C@H](C(CC)CC)NC(=O)[C@H](CC(C)C)N(C)C(=O)C[C@@H](C(=O)N2CCOCC2)N(C)C(=O)[C@H](C2CCCC2)N(C)C(=O)C2(CCCC2)NC(=O)[C@@H]2CCCN2C(=O)[C@H](CCc2cc(F)c(C(F)(F)F)c(F)c2)NC(=O)CN(C)C(=O)[C@@H]1Cc1ccc(C(F)(F)F)cc1 [PP0768] ([NMeL][Nva(3-Et)][Sar][Sar][NPrPhe(4-CF3)][Sar][hPhe(3,5-F2-4-CF3)]P[Ac5c][NMeGly(cPent)][NMeD]-Morpholide; lactam N-11)	C (A compound having a KD ratio of 0.1 or more and less than 3 is denoted as C)	36.1 nM	B (a compound having 3 or more and less than 10 is denoted as B)
CCCN1C(=O)CN(C)C(=O)CN(C)C(=O)[C@H](C2CC(F)(F)C2)NC(=O)[C@H](CC(C)C)N(C)C(=O)C[C@@H](C(=O)N2CCOCC2)N(C)C(=O)[C@H](C2CCCC2)N(C)C(=O)C2(CCCC2)NC(=O)[C@@H]2CCCN2C(=O)[C@H](CCc2cc(F)c(C(F)(F)F)c(F)c2)NC(=O)CN(C)C(=O)[C@@H]1Cc1ccc(C(F)(F)F)cc1 [PP0769] ([NMeL][X16][Sar][Sar][NPrPhe(4-CF3)][Sar][hPhe(3,5-F2-4-CF3)]P[Ac5c][NMeGly(cPent)][NMeD]-Morpholide; lactam N-11)	C (A compound having a KD ratio of 0.1 or more and less than 3 is denoted as C)	43.3 nM	B (a compound having 3 or more and less than 10 is denoted as B)
CCCN1C(=O)CN(C)C(=O)[C@@H]2CCN2C(=O)[C@H]([C@@H](C)CC)NC(=O)[C@H](CC(C)C)N(C)C(=O)C[C@@H](C(=O)N2CCOCC2)N(C)C(=O)[C@H](C2CCCC2)N(C)C(=O)C2(CCCC2)NC(=O)[C@@H]2CCCN2C(=O)[C@H](CCc2cc(F)c(C(F)(F)F)c(F)c2)NC(=O)CN(C)C(=O)[C@@H]1Cc1ccc(C(F)(F)F)cc1 [PP0770] ([NMeL]I[Aze][Sar][NPrPhe(4-CF3)][Sar][hPhe(3,5-F2-4-CF3)]P[Ac5c][NMeGly(cPent)][NMeD]-Morpholide; lactam N-11)	B (a compound having 3 or more and less than 10 is denoted as B)	62.2 nM	B (a compound having 3 or more and less than 10 is denoted as B)
CCCN1C(=O)CN(C)C(=O)[C@@H]2CCN2C(=O)[C@H]([C@@H](C)CC)NC(=O)[C@H](CC(C)C)N(C)C(=O)C[C@@H](C(=O)N2CCOCC2)N(C)C(=O)[C@H](C2CCCC2)N(C)C(=O)[C@](C)([C@@H](C)CC)NC(=O)[C@@H]2CCCN2C(=O)[C@H](CCc2cc(F)c(C(F)(F)F)c(F)c2)NC(=O)CN(C)C(=O)[C@@H]1Cc1ccc(C(F)(F)F)cc1 [PP0774] ([NMeL]I[Aze][Sar][NPrPhe(4-CF3)][Sar][hPhe(3,5-F2-4-CF3)]P[αMeI][NMeGly(cPent)][NMeD]-Morpholide; lactam N-11)	B (a compound having 3 or more and less than 10 is denoted as B)	478 nM	B (a compound having 3 or more and less than 10 is denoted as B)
CCCN1C(=O)CN(C)C(=O)[C@@H]2CCN2C(=O)[C@H]([C@@H](C)CC)NC(=O)[C@H](CC(C)C)N(C)C(=O)C[C@@H](C(=O)N2CCOCC2)N(C)C(=O)[C@H](C2CCCC2)N(C)C(=O)C2(COC2)NC(=O)[C@@H]2CCCN2C(=O)[C@H](CCc2cc(F)c(C(F)(F)F)c(F)c2)NC(=O)CN(C)C(=O)[C@@H]1Cc1ccc(C(F)(F)F)cc1 [PP0782] ([NMeL]I[Aze][Sar][NPrPhe(4-CF3)][Sar][hPhe(3,5-F2-4-CF3)]P[Ac4c(3-oxa)][NMeGly(cPent)][NMeD]-Morpholide; lactam N-11)	B (a compound having 3 or more and less than 10 is denoted as B)	425 nM	B (a compound having 3 or more and less than 10 is denoted as B)
CCCN1C(=O)CN(C)C(=O)[C@@H]2CCN2C(=O)[C@H]([C@@H](C)CC)NC(=O)[C@H](CC(C)C)N(C)C(=O)C[C@@H](C(=O)N2CCOCC2)N(C)C(=O)[C@H](C2CCCC2)N(C)C(=O)C2(CC(F)(F)C2)NC(=O)[C@@H]2CCCN2C(=O)[C@H](CCc2cc(F)c(C(F)(F)F)c(F)c2)NC(=O)CN(C)C(=O)[C@@H]1Cc1ccc(C(F)(F)F)cc1 [PP0783] ([NMeL]I[Aze][Sar][NPrPhe(4-CF3)][Sar][hPhe(3,5-F2-4-CF3)]P[Ac4c(3,3-F2)][NMeGly(cPent)][NMeD]-Morpholide; lactam N-11)	B (a compound having 3 or more and less than 10 is denoted as B)	122 nM	B (a compound having 3 or more and less than 10 is denoted as B)
CCCN1C(=O)CN(C)C(=O)[C@@H]2CCN2C(=O)[C@H]([C@@H](C)CC)NC(=O)[C@H](CC(C)C)N(C)C(=O)C[C@@H](C(=O)N2CCOCC2)N(C)C(=O)[C@H](CC(F)(F)F)N(C)C(=O)C2(CCCC2)NC(=O)[C@@H]2CCCN2C(=O)[C@H](CCc2cc(F)c(C(F)(F)F)c(F)c2)NC(=O)CN(C)C(=O)[C@@H]1Cc1ccc(C(F)(F)F)cc1 [PP0784] ([NMeL]I[Aze][Sar][NPrPhe(4-CF3)][Sar][hPhe(3,5-F2-4-CF3)]P[Ac5c][NMeAbu(4,4,4-F3)][NMeD]-Morpholide; lactam N-11)	B (a compound having 3 or more and less than 10 is denoted as B)	447 nM	B (a compound having 3 or more and less than 10 is denoted as B)
CCCN1C(=O)CN(C)C(=O)[C@@H]2CCN2C(=O)[C@H](C2CC(F)(F)C2)NC(=O)[C@H](CC(C)C)N(C)C(=O)C[C@@H](C(=O)N2CCOCC2)N(C)C(=O)[C@H](C2CCCC2)N(C)C(=O)C2(CCCC2)NC(=O)[C@@H]2CCCN2C(=O)[C@H](CCc2cc(F)c(C(F)(F)F)c(F)c2)NC(=O)CN(C)C(=O)[C@@H]1Cc1ccc(C(F)(F)F)cc1 [PP0786] ([NMeL][X16][Aze][Sar][NPrPhe(4-CF3)][Sar][hPhe(3,5-F2-4-CF3)]P[Ac5c][NMeGly(cPent)][NMeD]-Morpholide; lactam N-11)	B (a compound having 3 or more and less than 10 is denoted as B)	44.8 nM	B (a compound having 3 or more and less than 10 is denoted as B)
CCCN1C(=O)[C@@H]2CCN2C(=O)CN(C)C(=O)[C@H](C2CC(F)(F)C2)NC(=O)[C@H](CC(C)C)N(C)C(=O)C[C@@H](C(=O)N2CCOCC2)N(C)C(=O)[C@H](C2CCCC2)N(C)C(=O)C2(CCCC2)NC(=O)[C@@H]2CCCN2C(=O)[C@H](CCc2cc(F)c(C(F)(F)F)c(F)c2)NC(=O)CN(C)C(=O)[C@@H]1Cc1ccc(C(F)(F)F)cc1 [PP0787] ([NMeL][X16][Sar][Aze][NPrPhe(4-CF3)][Sar][hPhe(3,5-F2-4-CF3)]P[Ac5c][NMeGly(cPent)][NMeD]-Morpholide; lactam N-11)	B (a compound having 3 or more and less than 10 is denoted as B)	38.3 nM	C (A compound having a KD ratio of 0.1 or more and less than 3 is denoted as C)
CCCN1C(=O)CN(C)C(=O)CN(C)C(=O)[C@H]([C@@H](C)CC)NC(=O)[C@H](CC(C)C)N(C)C(=O)C[C@@H](C(=O)N(C)C)N(C)C(=O)[C@H](C2CCCC2)N(C)C(=O)C2(CCCC2)NC(=O)[C@@H]2CCCN2C(=O)[C@H](CCc2cc(F)c(C(F)(F)F)c(F)c2)NC(=O)CN(C)C(=O)[C@@H]1Cc1ccc(C(F)(F)F)cc1 [PP0788] ([NMeL]I[Sar][Sar][NPrPhe(4-CF3)][Sar][hPhe(3,5-F2-4-CF3)]P[Ac5c][NMeGly(cPent)][NMeD]-NMe2; lactam N-11)	C (A compound having a KD ratio of 0.1 or more and less than 3 is denoted as C)	7.1 nM	B (a compound having 3 or more and less than 10 is denoted as B)
CCCN1C(=O)[C@@H]2CCN2C(=O)CN(C)C(=O)[C@H]([C@@H](C)CC)NC(=O)[C@H](CC(C)C)N(C)C(=O)C[C@@H](C(=O)N2CCOCC2)N(C)C(=O)[C@H](C2CCCC2)N(C)C(=O)C2(CCCC2)NC(=O)[C@@H]2CCCN2C(=O)[C@H](CCc2cc(F)c(C(F)(F)F)c(F)c2)NC(=O)CN(C)C(=O)[C@@H]1Cc1ccc(C(F)(F)F)cc1 [PP0789] ([NMeL]I[Sar][Aze][NPrPhe(4-CF3)][Sar][hPhe(3,5-F2-4-CF3)]P[Ac5c][NMeGly(cPent)][NMeD]-Morpholide; lactam N-11)	B (a compound having 3 or more and less than 10 is denoted as B)	12.5 nM	C (A compound having a KD ratio of 0.1 or more and less than 3 is denoted as C)
CCCN1C(=O)[C@@H]2CCN2C(=O)CN(C)C(=O)[C@H]([C@@H](C)CC)NC(=O)[C@H](CC(C)C)N(C)C(=O)C[C@@H](C(=O)N2CCOCC2)N(C)C(=O)[C@H](C2CCCC2)N(C)C(=O)[C@](C)(CC)NC(=O)[C@@H]2CCCN2C(=O)[C@H](CCc2cc(F)c(C(F)(F)F)c(F)c2)NC(=O)CN(C)C(=O)[C@@H]1Cc1ccc(C(F)(F)F)cc1 [PP0790] ([NMeL]I[Sar][Aze][NPrPhe(4-CF3)][Sar][hPhe(3,5-F2-4-CF3)]P[Iva][NMeGly(cPent)][NMeD]-Morpholide; lactam N-11)	B (a compound having 3 or more and less than 10 is denoted as B)	28.8 nM	C (A compound having a KD ratio of 0.1 or more and less than 3 is denoted as C)

Reference: patent EP4603105A1, “PHARMACEUTICAL COMPOSITION CONTAINING CYCLIC COMPOUND HAVING SELECTIVE KRAS INHIBITORY EFFECT AGAINST HRAS AND NRAS” (CHUGAI SEIYAKU KABUSHIKI KAISHA, priority 2022, dated 2024)
